Experimental data reported in paper PMC4527935 (Nature structural & molecular biology, 2015).

Assays:
[1] = molecular target: T1, yeast AAC carrier 3 (yAAC3), mitochondrial ADP/ATP carrier (Saccharomyces cerevisiae, UniProt P18238); test: NMR chemical shift titration; format: binding
[2] = molecular target: T1, yeast AAC carrier 3 (yAAC3), mitochondrial ADP/ATP carrier; test: ITC; format: binding

T1 sequence (P18238 whole entry): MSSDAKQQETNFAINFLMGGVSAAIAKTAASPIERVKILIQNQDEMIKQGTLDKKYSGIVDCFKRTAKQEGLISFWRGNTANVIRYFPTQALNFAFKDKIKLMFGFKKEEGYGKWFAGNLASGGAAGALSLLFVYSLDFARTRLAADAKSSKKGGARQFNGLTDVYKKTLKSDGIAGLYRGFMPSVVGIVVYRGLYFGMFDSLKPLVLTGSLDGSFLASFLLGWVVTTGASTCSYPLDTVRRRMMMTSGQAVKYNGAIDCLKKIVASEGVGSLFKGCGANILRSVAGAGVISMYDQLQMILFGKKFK

Row | SMILES | Kd [1] | Kd [2]
1 | Nc1ncnc2c1ncn2[C@@H]1O[C@H](COP(=O)(O)OP(=O)(O)O)[C@@H](O)[C@H]1O [ADP] | ~500 µM | 
2 | C=C1[C@@H]2CC[C@H]3[C@]4(C)C[C@H](O[C@@H]5O[C@H](CO)[C@@H](OS(=O)(=O)O)[C@H](OS(=O)(=O)O)[C@H]5OC(=O)CC(C)C)CC(C(=O)O)(C(=O)O)[C@H]4CC[C@]3(C2)[C@H]1O [CATR, carboxyatractyloside] |  | 14.9 ± 9.6 µM
